{"source": "patent US20250002527A1", "about": "“STEROID COMPOUND AND CONJUGATE THEREOF” (DUALITY BIOLOGICS (SUZHOU) CO., LTD., priority 2021, published 2025)", "format_in_all_cases": "cell-based", "key": {"ERα": {"target": "T1, ERα (Homo sapiens, UniProt P03372)", "T1 sequence (P03372 311-547 limits assumed)": "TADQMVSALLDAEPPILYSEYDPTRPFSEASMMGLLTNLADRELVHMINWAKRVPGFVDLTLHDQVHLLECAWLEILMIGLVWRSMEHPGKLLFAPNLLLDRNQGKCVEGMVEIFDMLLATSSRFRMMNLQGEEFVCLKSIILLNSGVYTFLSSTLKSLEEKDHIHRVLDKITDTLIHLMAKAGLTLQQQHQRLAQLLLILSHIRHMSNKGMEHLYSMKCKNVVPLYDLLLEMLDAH", "assay": "ERα luciferase reporter gene experiment", "settings": "HEK293 transfected with pBIND-ERα", "protocol": "(§1) HEK293 cells were cultured in DMEM+10% FBS medium in a carbon dioxide incubator humidified at 37° C. at 5% carbon dioxide.\n(§2) • 1) HEK293 cells were trypsinized, and the HEK293 cell resuspension was adjusted to 200,000 cell/mL in medium (96 well plate: 100 μL/well). • 2) Transfection reagent mixtures were prepared according to the table below, mixed well and left at room temperature for 20 minutes.\n(§3) • 3) The prepared transfection mixtures were added to 10 mL of the cell density-adjusted resuspension, mixed well by turning the mixtures upside down, and seeded into a 96-well plate at a volume of 100 μL/well. • 4) The 96-well plate was incubated in a humidified incubator at 37° C. and 5% carbon dioxide for 24 hours.\n(§4) The test plate was detected using the Dual-Glo Luciferase Assay System kit from Promega, and the fluorescence signal of Firefly Luciferase and the fluorescence signal of Renilla Luciferase were read using Enspire, respectively.\n(§5) Y is the agonism and X is the concentration of the compound."}, "MR": {"target": "T2, MR (Homo sapiens, UniProt P08235)", "T2 construct": "expressed in transfected cells; host or cells: HEK293", "T2 sequence (P08235 1-984)": "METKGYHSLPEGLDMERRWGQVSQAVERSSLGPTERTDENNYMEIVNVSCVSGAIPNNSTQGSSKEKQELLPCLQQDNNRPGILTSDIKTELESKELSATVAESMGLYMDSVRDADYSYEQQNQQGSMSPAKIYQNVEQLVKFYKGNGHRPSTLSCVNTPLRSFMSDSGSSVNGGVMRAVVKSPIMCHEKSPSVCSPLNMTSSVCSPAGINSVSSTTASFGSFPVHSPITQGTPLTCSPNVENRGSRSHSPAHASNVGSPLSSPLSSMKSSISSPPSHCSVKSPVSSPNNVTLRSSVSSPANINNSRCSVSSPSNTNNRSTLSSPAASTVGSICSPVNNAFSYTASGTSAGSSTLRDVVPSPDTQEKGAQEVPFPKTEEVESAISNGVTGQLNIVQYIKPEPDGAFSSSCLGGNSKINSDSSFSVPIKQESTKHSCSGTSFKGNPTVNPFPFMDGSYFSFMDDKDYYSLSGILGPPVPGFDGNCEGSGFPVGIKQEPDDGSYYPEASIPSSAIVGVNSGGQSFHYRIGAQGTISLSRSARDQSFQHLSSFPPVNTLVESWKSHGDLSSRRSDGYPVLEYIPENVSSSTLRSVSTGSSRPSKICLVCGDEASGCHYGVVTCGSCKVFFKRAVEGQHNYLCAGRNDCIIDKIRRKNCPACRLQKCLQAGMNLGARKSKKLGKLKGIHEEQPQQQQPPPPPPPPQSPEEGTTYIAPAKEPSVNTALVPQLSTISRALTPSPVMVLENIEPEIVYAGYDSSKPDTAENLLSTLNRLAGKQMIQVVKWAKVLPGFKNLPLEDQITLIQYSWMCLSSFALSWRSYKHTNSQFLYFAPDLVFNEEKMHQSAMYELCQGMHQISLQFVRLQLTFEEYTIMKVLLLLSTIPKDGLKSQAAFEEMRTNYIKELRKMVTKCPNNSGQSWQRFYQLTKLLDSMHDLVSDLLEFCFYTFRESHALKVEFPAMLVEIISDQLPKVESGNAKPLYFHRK", "assay": "MR luciferase reporter gene experiment", "settings": "HEK293 transfected with pBIND-MR", "protocol": "as §1, §2, §3, §4, §5"}, "glucocorticoid receptor [1]": {"target": "T3, glucocorticoid receptor (Homo sapiens, UniProt P04150)", "T3 construct": "expressed in transfected cells; host or cells: HEK293", "T3 sequence (P04150 1-777)": "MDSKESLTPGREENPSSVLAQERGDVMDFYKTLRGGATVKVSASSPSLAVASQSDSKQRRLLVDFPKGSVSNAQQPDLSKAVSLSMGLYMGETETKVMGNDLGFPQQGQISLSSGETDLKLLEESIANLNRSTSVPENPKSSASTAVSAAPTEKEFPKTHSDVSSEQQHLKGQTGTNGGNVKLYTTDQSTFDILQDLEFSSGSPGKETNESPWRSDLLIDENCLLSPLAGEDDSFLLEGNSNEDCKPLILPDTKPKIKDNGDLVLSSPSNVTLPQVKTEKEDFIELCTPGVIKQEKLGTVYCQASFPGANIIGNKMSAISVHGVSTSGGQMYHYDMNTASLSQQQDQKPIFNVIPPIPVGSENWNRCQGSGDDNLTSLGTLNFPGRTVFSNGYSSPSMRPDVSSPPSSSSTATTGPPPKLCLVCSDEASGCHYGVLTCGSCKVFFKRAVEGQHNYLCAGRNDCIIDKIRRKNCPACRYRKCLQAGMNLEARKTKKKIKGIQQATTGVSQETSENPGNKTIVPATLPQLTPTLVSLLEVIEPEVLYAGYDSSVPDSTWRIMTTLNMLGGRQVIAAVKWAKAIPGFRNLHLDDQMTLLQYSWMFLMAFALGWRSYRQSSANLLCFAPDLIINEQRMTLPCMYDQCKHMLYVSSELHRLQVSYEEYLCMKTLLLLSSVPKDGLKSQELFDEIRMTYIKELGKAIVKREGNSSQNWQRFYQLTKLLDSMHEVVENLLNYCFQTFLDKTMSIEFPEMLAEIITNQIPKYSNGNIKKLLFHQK", "assay": "Measurement 1 of glucocorticoid receptor reporter gene GRE activity", "settings": "HEK293 transfected with pGL5 and pBIND-GR, 24 hours", "protocol": "as §1\nThe prepared transfection mixtures were added to 10 mL of the cell density-adjusted resuspension, mixed well by turning the mixtures upside down, and seeded into a 96-well plate at a volume of 100 μL/well.\nas §4\nThe final measurement value was a normalized value “F/R” obtained by dividing the Firefly Luciferase fluorescent signal by the Renilla Luciferase fluorescent signal.\nThe data were copied and pasted into Excel, and the activation rate was obtained through an equation.\nThe data were imported into MS Excel and subjected to curve fitting by using XLFit excel add-in version 5.4.0.8 to obtain an EC50 value.\nas §5"}, "human PBMC cells": {"tested_on": "human PBMC cells", "assay": "IFN-α secretion from PBMC under R848 stimulation (compounds)", "settings": "R848 5 μM, 24 hours, mean ± standard deviation", "protocol": "The compounds of the present application were tested for their inhibitory effect on the production of peripheral blood monocytes. The peripheral blood monocytes were treated in vitro with the ligand-drug conjugate at different concentrations, and IFNα and TNFα generated by the peripheral blood monocytes were quantitatively detected after a certain time. The compounds of the present invention were evaluated for in-vitro activity.\nThe cryopreserved human PBMC cells were resuspended in a complete medium and counted, and the cell suspension was adjusted to 2.5×10*6 cells/mL with the culture medium. After the suspension was centrifuged to collect the cells the next day, the cells were resuspended using fresh culture medium. Test compounds were diluted to 4-fold final concentration in cell culture medium, 50 μL of the compounds were added into a 96-well cell plate, and 100 μL of diluted cells ([…]) were added into each well of the 96-well plate containing the compounds, followed by addition of 50 μL R848 to a final concentration of 5 μM. The cell plate was incubated at 37° C. with 5% CO2 for 24 hours. The supernatant was collected, and the TNF-α and IFN-α concentration levels in the supernatant were detected using an ELISA kit.\n50 μL of biotinylated antibody working solution was added into each well. After mixing well, the plate was covered with the plate-sealing membrane and incubated at room temperature for 3 hours. […] The procedure was repeated for 3 times. 100 μL of Streptavidin-HRP working solution was added into each well. The plate was covered with the plate-sealing membrane and incubated at room temperature for 20 minutes. The plate was washed for 3 times, 100 μL of TMB liquid was added into each well, and the plate was incubated for 25 minutes at room temperature (18-25° C.) in the dark. The reaction was stopped by adding 100 μL stop solution rapidly to each well. The reading at a wavelength of 450 nm was detected by an M2e instrument within 10 minutes after termination.\nThe contents of TNF-α and IFN-α were calculated from the OD450 values."}, "glucocorticoid receptor [2]": {"target": "T3, glucocorticoid receptor", "assay": "Measurement 2 of glucocorticoid receptor reporter gene GRE activity (HEK293 GRE cells)", "settings": "24 hours"}}, "note": "pEC50: −log10 of the molar value.", "data": [{"molecule": "C[C@]12C=CC(=O)C=C1CC[C@@H]1[C@@H]2[C@@H](O)C[C@@]2(C)[C@H]1C[C@H]1O[C@@H](c3ccc(Cc4cccc(CO)c4)cc3)O[C@]12C(=O)CO", "note": "[Compound 3]", "values": [{"measurement": "pEC50", "setting": "ERα", "result": "< 6.00"}, {"measurement": "pEC50", "setting": "MR", "result": "< 6.00"}]}, {"molecule": "C[C@]12C=CC(=O)C=C1CC[C@@H]1[C@@H]2[C@@H](O)C[C@@]2(C)[C@H]1C[C@H]1O[C@H](c3ccc(Cc4ccc(CO)cc4)cc3)O[C@]12C(=O)CO", "note": "[Compound 4S]", "values": [{"measurement": "pEC50", "setting": "glucocorticoid receptor [1]", "result": 8.85}]}, {"molecule": "C[C@]12C=CC(=O)C=C1CC[C@@H]1[C@@H]2[C@@H](O)C[C@@]2(C)[C@H]1C[C@H]1O[C@@H](c3ccc(Cc4ccc(CO)c(N)c4)cc3)O[C@]12C(=O)CO", "note": "[Compound 6]", "values": [{"measurement": "IFN-α secretion (pg/mL) from PBMC under R848 stimulation", "setting": "human PBMC cells; compound 4 nM", "result": "99.8 ± +5.7 pg/mL"}, {"measurement": "IFN-α secretion (pg/mL) from PBMC under R848 stimulation", "setting": "human PBMC cells; compound 20 nM", "result": "45.9 ± 45.9", "unit": "pg/mL"}, {"measurement": "IFN-α secretion (pg/mL) from PBMC under R848 stimulation", "setting": "human PBMC cells; compound 100 nM", "result": "6.9 ± 6.9", "unit": "pg/mL"}, {"measurement": "pEC50", "setting": "glucocorticoid receptor [2]", "result": 9.92}]}]}
